According to patent US6740335B1, “Liposomal camptothecin formulations” (priority 1997, dated 2004):
Where a name gives a salt, the structure may show the parent alone.

Columns and labels:
[1] = system: MCF-7 (Breast); test: 3H-thymidine incorporation cytotoxicity assay, MCF-7; format: cell-based, human; details: Homo sapiens, MCF7; MCF-7, 42 h; read-out: Median IC50
Experimental: (§1) In vitro efficacy screening has been performed using GI147211 and liposomal formulations of GI147211. […] Standard tumor cell-based cytototoxicity assays assessing ^3H-thymidine incorporation were performed.
(§2) Tumor cells were seeded into 96-well tissue culture plates (1×10^4 cells/well)≡4 h prior to experimentation. […] Positive and negative (Tris treated) control groups were included on each assay plate. Tumor cells were then labeled with 0.25 μCi of [methyl-^3H] thymidine and incubated for 42 h under tissue culture conditions (37° C., 5% CO2, 100% relative humidity), except for C6, U251, A673 and B16-F1 cells which were incubated for 24 h. Cells were then lysed, harvested onto glass-fiber filters and unincorporated [methyl-^3H] thymidine removed by filter washing. Filters were processed for scintillation counting and cpm-^3H/well determined. […] Data are presented from multiple sets of experimentation, involving multiple liposomal formulations of GI147211.

[2] = system: BT-20 (Breast); test: 3H-thymidine incorporation cytotoxicity assay, BT-20; format: cell-based, human; details: Homo sapiens, BT-20, 42 h; read-out: Median IC50
Experimental: as §1, §2

[3] = system: U251 (Glioblastoma); test: 3H-thymidine incorporation cytotoxicity assay, U251; format: cell-based, human; details: Homo sapiens, U-251; U251, 24 h; read-out: Median IC50
Experimental: as §1, §2

[4] = system: HT29 human colon tumor; test: Xenograft efficacy at identical dose, HT29; format: in vivo; details: for Log 10 Cell Kill / T-C (time to reach 1,000% Tumor Volume, treated vs control): QD7 × 3; for % TGI: QD7 × 3, day 26
Experimental: (§3) In all the studies performed, subcutaneous tumors implanted on the anterior flank of nude mice were allowed to grow to an established size of 200+/−50 mm^3 prior to dosing drugs.
The xenograft models included the HT29 and SW48 human colon tumor lines, and the KB and KBV head-neck tumors. Drugs were dosed at either 6 or 9 mg/kg intravenously, on a weekly schedule for 3 consecutive weeks. In the SW48 xenograft study, the animals received a total of two cycles of therapy (6 injections), with a 10 day recovery period separating the two therapeutic courses. In the HT29 xenograft study a 12 and 14 mg/kg dose group was added.

[5] = system: B16-F1 (Melanoma, murine); test: 3H-thymidine incorporation cytotoxicity assay, B16-F1; format: cell-based; details: Mus musculus, B16-F1, 24 h; read-out: Median IC50
Experimental: as §1, §2

[6] = system: ES2 Tumor Xenograft; test: Repeat dose efficacy at equal toxic doses, ES2 xenograft; details: ES2, 14 mg/kg, days 1, 8 and 15
Experimental: as §3
(§4) Drugs were dosed on days 1,8 and 15.

[7] = Precipitation of GI147211 with counterion excipients (HPLC of supernatant); format: physicochemical
Experimental: The excipients include, but are not limited to, the acid, sodium or ammonium forms of monovalent anions such as chloride, acetate, lactobionate and formnate; divalent anions such as succinate, aspartate and sulfate; and trivalent ions such as citrate and phosphate. To assess the relative degree of precipitation brought about with each excipient, 5 mg/ml solutions of GI147211 were prepared at low pH (2±0.5) and different counterions were added. The solutions of GI147211 and counterion were allowed to stand for 15 to 20 minutes, then centrifuiged at 3600 rpm for 10 minutes to isolate the precipitate. The quantity of GI147211 remaining in solution for each sample was then assessed by assaying the supernatants using HPLC with the following conditions: C18 ODS Hypersil column from Keystone, mobile phase of 30/70 (v/v) acetonitrile/0.1% acetic acid +0.1% aqueous triethylamine buffer, pH 3.30 with LTV detection at 270 nm. The amount of GI147211 precipitated was also tabulated by the taking the difference of the concentration of the remaining soluble fraction from Smg/ml, the original GI1147211 concentration in solution. Each number is expressed in Table 6 as percentage of the original solution concentration of 5 mg/ml.
To more fully explore the concentration dependence of GI147211 precipitation, 5 mg/ml solutions of the drug were prepared as described in Example 3 and titrated with increasing concentrations of the counterion excipients sulfate, citrate, phosphate and chloride. The solutions of GI147211 and counterion were allowed to stand for 15 to 20 minutes, then centrifuged at 3600 rpm for 10 minutes to isolate the precipitate and the supernatants were assayed as described in Example 3.
In a separate study, precipitation of the camptothecin GI147211 was examined at the predicted concentration in the interior of the liposome (approx. 40 mg/ml camptothecin GI147211) after loading in the presence of 50 mM ammonium sulfate.

[8] = system: MDA-MB-468 (Breast); test: 3H-thymidine incorporation cytotoxicity assay, MDA-MB-468; format: cell-based, human; details: Homo sapiens, MDA-MB-468, 42 h; read-out: Median IC50
Experimental: as §1, §2

[9] = system: MDR + , KBV Xenograft; test: Repeat dose efficacy at equal toxic doses, KBV xenograft; format: in vivo, nude mice; details: days 1, 8 and 15
Experimental: as §4

[10] = 5 mg/ml GI147211, pH 2±0.5, aspartate 50 mM
[11] = 5 mg/ml GI147211, pH 2±0.5, chloride 100 mM
[12] = 5 mg/ml GI147211, pH 2±0.5, citrate 20 mM
[13] = 5 mg/ml GI147211, pH 2±0.5, citrate 50 mM
[14] = 5 mg/ml GI147211, pH 2±0.5, formate 50 mM
[15] = 5 mg/ml GI147211, pH 2±0.5, lactobionate 50 mM
[16] = 5 mg/ml GI147211, pH 2±0.5, phosphate 100 mM
[17] = 5 mg/ml GI147211, pH 2±0.5, succinate 500 mM
[18] = 5 mg/ml GI147211, pH 2±0.5, sucrose 300 mM
[19] = 5 mg/ml GI147211, pH 2±0.5, sulfate 20 mM
[20] = 5 mg/ml GI147211, pH 2±0.5, sulfate 50 mM
[21] = approx. 40 mg/ml GI147211, 50 mM ammonium sulfate

## CCC1(O)C(=O)OCc2c1cc1n(c2=O)Cc2c-1nc1cc3c(cc1c2CN1CCN(C)CC1)OCCO3 (stereo in doubt) [GI147211, 7-(4-methylpiperazinomethylene)-10,11-ethylenedioxy-20(S)-camptothecin dihydrochloride]
[1]
  IC50: 44.1 ng/mL
[2]
  IC50: 0.0866 ng/mL
[3]
  IC50: 3.11 ng/mL
[4]; HT29, 6 mg/kg iv
  Log 10 Cell Kill: 0.753
  T-C (time to reach 1,000% Tumor Volume, treated vs control): 12 days
  % TGI: 48%
[4]; HT29, 9 mg/kg iv
  Log 10 Cell Kill: 0.753
  T-C (time to reach 1,000% Tumor Volume, treated vs control): 12 days
[4]; HT29, 9 mg/kg iv, dihydrochloride
  % TGI: 54%
[4]; HT29, 9 mg/kg iv, listed as free drug, dihydrochloride
  % TGI: 54%
[4]; HT29, 12 mg/kg iv
  Log 10 Cell Kill: 0.815
  T-C (time to reach 1,000% Tumor Volume, treated vs control): 13 days
  % TGI: 70%
[4]; HT29, 14 mg/kg iv
  Log 10 Cell Kill: 1.94
  T-C (time to reach 1,000% Tumor Volume, treated vs control): 31 days
  % TGI: 78%
[5]
  IC50: 111 ng/mL
[6]
  Cures: 1
  Log Cell Kill: 2.14
  Maximum Body Weight loss: 9%
  T − C (to reach 400% tumor volume increase): 27 days
  Toxic Deaths: 3
[7]; [10]
  % GI147211 Precipitated: 57.8%
  % GI147211 Remaining in Solution: 42.2%
[7]; [11]
  % GI147211 Precipitated: 85.2%
  % GI147211 Remaining in Solution: 14.8%
[7]; [12]
  % GI147211 Precipitated: 98.8%
  % GI147211 Remaining in Solution: 1.2%
[7]; [13]
  % GI147211 Precipitated: 99.1%
  % GI147211 Remaining in Solution: 0.9%
[7]; [14]
  % GI147211 Precipitated: 64.7%
  % GI147211 Remaining in Solution: 35.3%
[7]; [15]
  % GI147211 Precipitated: 6.2%
  % GI147211 Remaining in Solution: 93.8%
[7]; [16]
  % GI147211 Precipitated: 82.3%
  % GI147211 Remaining in Solution: 17.7%
[7]; [17]
  % GI147211 Precipitated: 98.8%
  % GI147211 Remaining in Solution: 1.2%
[7]; [18]
  % GI147211 Precipitated: 8.2%
  % GI147211 Remaining in Solution: 91.8%
[7]; [19]
  % GI147211 Precipitated: 97.9%
  % GI147211 Remaining in Solution: 2.1%
[7]; [20]
  % GI147211 Precipitated: 98.1%
  % GI147211 Remaining in Solution: 1.9%
[7]; [21]
  drug precipitated: ~99%
  remained in solution: 0.5%
[7]; chloride and phosphate
  drug precipitated: greater than 82%
[7]; formate and aspartate
  drug precipitated: greater than 55%
[7]; sucrose and lactobionate
  drug precipitated: less than 10%
[7]; sulfate, citrate, and succinate
  drug precipitated: greater than 97%
[8]
  IC50: 6.42 ng/mL
[9]; 12 mg/kg
  Days to 1000%: 16.15 days
  Log 10 Cell Kill: 0.53
  T − C: 7.58
  Toxic Deaths: 3
[9]; 14 mg/kg
  Days to 1000%: 17 days
  Log 10 Cell Kill: 0.59
  T − C: 8.43
  Toxic Deaths: 3
[9]; 16 mg/kg
  Days to 1000%: 17 days
  Log 10 Cell Kill: 0.59
  T − C: 8.43
  Toxic Deaths: 1
